Article PMC10005104 (Molecules, 2023)
“And” between values parts separate entries of the source, which are not always exact repeats. Equal entries are not always repeated. “Also recorded” adds a separate entry of the source. Structures can show the parent of a compound that is named as a salt. Where two headings read alike, the source gives them in different places.

How the values were obtained:
hMAO B = biological target: T1, hMAO B (Homo sapiens, UniProt P27338); assay: fluorometric Amplex red MAO assay; type: biochemical; details: at 1 µM; two independent experiments; read-out: hMAO B % inh
T1 construct: purchased Sigma-Aldrich (Steinheim, Germany)
T1 sequence (P27338 1-520): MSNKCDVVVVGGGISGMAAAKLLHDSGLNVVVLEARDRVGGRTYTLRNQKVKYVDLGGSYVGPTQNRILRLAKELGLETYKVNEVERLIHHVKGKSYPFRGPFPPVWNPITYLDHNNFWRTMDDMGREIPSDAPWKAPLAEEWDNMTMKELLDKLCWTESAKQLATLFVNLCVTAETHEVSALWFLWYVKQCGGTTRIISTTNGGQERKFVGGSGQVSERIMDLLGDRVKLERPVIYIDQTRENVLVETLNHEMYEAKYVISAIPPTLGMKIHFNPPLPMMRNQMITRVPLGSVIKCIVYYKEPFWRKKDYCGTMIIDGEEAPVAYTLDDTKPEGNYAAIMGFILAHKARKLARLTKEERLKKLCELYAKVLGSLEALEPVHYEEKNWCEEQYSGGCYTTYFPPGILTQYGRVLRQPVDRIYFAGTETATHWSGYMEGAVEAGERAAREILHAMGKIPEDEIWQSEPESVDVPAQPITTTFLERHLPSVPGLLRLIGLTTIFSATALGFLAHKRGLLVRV
Protocol: The ability to inhibit MAO B was estimated by a fluorescence assay, as previously described.
The enzyme was purchased from Sigma-Aldrich (Steinheim, Germany). Screening was carried out at a concentration of 1 micromolar. Inhibitor activity was measured in the presence of p-tyramine.
Data are expressed as mean values of two independent experiments.

SH-SY5Y cells = assay: MTS assay in SH-SY5Y cells; type: cell-based; details: Homo sapiens, SH-SY5Y; MTS assay, 24 h of exposure
Protocol: (§1) . After the indicated time, the MTS reagent was added directly to the cultured cells for 1 h, and then the absorbance at 490 nm was read. […] The results are presented in Table 2 and Figures S1 and S2 (Supplementary Materials).
(§2) The hepatoma cell line HepG2 (ATCC® HB-8065TM) and SH-SY5Y CRL-2266 neuroblastoma cell line were used to evaluate the toxicity of tested compounds. Tests were conducted as described previously. The CellTiter 96® Aqueous Non-Radioactive Cell Proliferation Assay was purchased from Promega (Madison, WI, USA). […]. […] Each experiment was performed twice, in triplicate.

[1] = MTS assay in SH-SY5Y cells; type: cell-based; details: human, SH-SY5Y neuroblastoma cells; at 50 µM, percentage of control (vehicle-treated cells); read-out: SH-SY5Y Cell Viability (%)
Protocol: as §1, §2

[2] = biological target: T2, AChE from electrophorus electricus (eeAChE) (Electrophorus electricus, UniProt O42275); assay: modified Ellman colorimetric assay, eeAChE; type: biochemical; details: for IC50: three independent experiments, read-out: eeAChE IC50 Mean ± SEM
T2 construct: purchased Sigma-Aldrich (Steinheim, Germany)
T2 sequence (O42275 24-633): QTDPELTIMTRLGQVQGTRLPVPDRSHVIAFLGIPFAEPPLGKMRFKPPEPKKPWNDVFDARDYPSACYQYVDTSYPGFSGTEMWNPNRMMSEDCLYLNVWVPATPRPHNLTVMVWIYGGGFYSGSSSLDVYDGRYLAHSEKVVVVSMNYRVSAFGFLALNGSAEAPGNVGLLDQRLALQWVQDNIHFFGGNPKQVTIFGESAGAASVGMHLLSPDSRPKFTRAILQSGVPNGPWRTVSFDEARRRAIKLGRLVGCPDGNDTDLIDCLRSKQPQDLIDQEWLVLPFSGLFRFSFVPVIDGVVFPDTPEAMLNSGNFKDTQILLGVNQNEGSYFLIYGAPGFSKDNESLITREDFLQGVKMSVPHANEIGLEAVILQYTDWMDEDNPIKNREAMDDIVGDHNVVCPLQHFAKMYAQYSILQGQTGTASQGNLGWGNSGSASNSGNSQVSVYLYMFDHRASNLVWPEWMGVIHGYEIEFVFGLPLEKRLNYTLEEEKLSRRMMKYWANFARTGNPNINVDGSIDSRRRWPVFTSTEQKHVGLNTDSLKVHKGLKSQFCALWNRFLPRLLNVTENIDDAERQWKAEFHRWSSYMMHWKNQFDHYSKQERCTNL
Protocol: All compounds were tested at a concentration of 10 µM in a modified colorimetric method first described by Ellman et al. in the 1960s, using AChE from electrophorus electricus (eeAChE) and BuChE from equine serum (eqBuChE). […]. All results are collected in Table 1. […]. […] No correlation was observed between inhibitory activity and hH3R affinity. The most interesting compounds were among the azepane derivatives. […]. AChE from electrophorus electricus and BuChE from equine serum were purchased from Sigma-Aldrich (Steinheim, Germany). The whole procedure was performed as previously described, using a modified Ellman method in 96-well microplates. Absorbance was measured using an EnSpire multimode microplate reader (PerkinElmer, Waltham, MA, USA) at 412 nm. Initial screening was performed for compounds at a concentration of […]. The percentage of inhibition was calculated by comparison with a blank sample (100% enzyme activity). For compounds showing >70% inhibition of enzyme activity, IC50 values were determined, measuring absorbance at six different inhibitor concentrations. Each concentration was measured in triplicate. IC50 values were calculated using GrapPad Prism 9 software (GraphPad Software, San Diego, CA, USA). Data are expressed as mean ± SEM.

[3] = MTS assay, statements on both cell lines together; type: cell-based, human; details: human, HepG2 hepatoma cells and SH-SY5Y neuroblastoma cells; HepG2 48 h, SH-SY5Y 24 h; up to 50 µM; read-out: cell viability at the highest doses tested
MTS assay in HepG2 cells = type: cell-based; details: human, HepG2 hepatoma cells; at 50 µM, percentage of control (vehicle-treated cells); read-out: HepG2 Cell Viability (%)
Protocol: as §1, §2

HepG2 cells = assay: MTS assay in HepG2 cells; type: cell-based; details: Homo sapiens, HepG2; MTS assay, 48 h of exposure
Protocol: as §1, §2

[4] = biological target: T3, BuChE from equine serum (eqBuChE) (Equus caballus, UniProt P81908); assay: biochemical; details: for IC50: three independent experiments, read-out: eqBuChE IC50 Mean ± SEM
T3 construct: BuChE from equine serum (eqBuChE); purchased Sigma-Aldrich (Steinheim, Germany); host or cells: equine serum
T3 sequence (P81908 whole entry): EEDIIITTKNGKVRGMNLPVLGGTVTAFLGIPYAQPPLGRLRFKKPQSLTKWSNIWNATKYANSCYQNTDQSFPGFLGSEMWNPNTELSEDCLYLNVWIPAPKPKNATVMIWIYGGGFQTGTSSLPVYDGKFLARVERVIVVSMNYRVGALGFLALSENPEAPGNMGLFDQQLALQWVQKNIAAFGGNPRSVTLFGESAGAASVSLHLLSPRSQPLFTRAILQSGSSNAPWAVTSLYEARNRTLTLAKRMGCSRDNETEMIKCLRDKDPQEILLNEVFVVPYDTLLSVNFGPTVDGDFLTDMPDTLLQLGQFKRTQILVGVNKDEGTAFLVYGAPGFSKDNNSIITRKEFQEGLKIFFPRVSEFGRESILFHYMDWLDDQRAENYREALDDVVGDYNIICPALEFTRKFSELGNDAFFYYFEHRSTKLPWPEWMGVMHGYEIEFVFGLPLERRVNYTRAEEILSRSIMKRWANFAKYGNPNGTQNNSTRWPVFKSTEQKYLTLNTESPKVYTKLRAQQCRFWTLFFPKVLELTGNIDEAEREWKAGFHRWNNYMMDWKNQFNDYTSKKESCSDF
Protocol: AChE from electrophorus electricus and BuChE from equine serum were purchased from Sigma-Aldrich (Steinheim, Germany). The whole procedure was performed as previously described, using a modified Ellman method in 96-well microplates. […] Initial screening was performed for compounds at a concentration of […]. The percentage of inhibition was calculated by comparison with a blank sample (100% enzyme activity). […] Each concentration was measured in triplicate. IC50 values were calculated using GrapPad Prism 9 software (GraphPad Software, San Diego, CA, USA). Data are expressed as mean ± SEM.

human H3 receptor (hH3R) = biological target: T4, human H3 receptor (hH3R) (Homo sapiens, UniProt Q9Y5N1); assay: [3H]-Nα-methylhistamine radioligand binding assay, HEK293 cell membranes expressing hH3R; details: hH3R Ki Mean [CI 95%], HEK293 cells expressing human H3 receptor; at least three independent repetitions
T4 construct: expressed in transfected cells; host or cells: HEK293
T4 sequence (Q9Y5N1 whole entry): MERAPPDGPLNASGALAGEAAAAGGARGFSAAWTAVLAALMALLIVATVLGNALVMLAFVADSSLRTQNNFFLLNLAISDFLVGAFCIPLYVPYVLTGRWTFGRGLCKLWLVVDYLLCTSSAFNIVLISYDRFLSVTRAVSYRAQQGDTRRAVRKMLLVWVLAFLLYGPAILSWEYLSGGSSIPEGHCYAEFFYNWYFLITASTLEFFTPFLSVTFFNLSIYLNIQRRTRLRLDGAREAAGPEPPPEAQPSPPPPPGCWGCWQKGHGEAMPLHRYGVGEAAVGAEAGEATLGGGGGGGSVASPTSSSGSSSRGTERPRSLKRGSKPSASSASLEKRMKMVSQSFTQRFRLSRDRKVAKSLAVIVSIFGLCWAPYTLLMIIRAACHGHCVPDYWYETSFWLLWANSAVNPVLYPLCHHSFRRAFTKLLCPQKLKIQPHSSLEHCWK
Protocol: The affinity for hH3R was assessed in vitro in radioligand binding assays, using membrane preparations of HEK293 cells stably expressing hH3R, while [^3H]-N^α-methylhistamine was used as a radioligand. The exact procedure was described previously by Kottke et al.. Novel compounds were tested as oxalic acid salts. […]. The activity depended on all three variables, i.e., the presence of an amine group, the chain length (five or six carbons), and the type of substituent in the phenyl ring. With regard to the change in the amine moiety, it can be observed that, regardless of the length of the chain and the type of R substituent, the activity of the derivatives was arranged in the following order: 3-methylpiperidine ≥ piperidine ≥ azepane >> 4-metylpiperidine derivatives. Regarding the length of the carbon chain, compounds bearing the pentylene chain are characterized by a higher binding affinity to the receptor than hexylene derivatives (exception: 10). […]
H3R receptor affinity assays were performed in the radioligand competition assay. Human H3R was stably expressed in HEK293 cells. [^3H]-N^α-Methylhistamine (KD = 3.08 nM) was used as the radioligand. The compounds used in the experiments were dissolved in DMSO. The precise experiment was performed as previously described. Complete curves were obtained for at least seven approximate concentrations, in at least three independent experiments, performed at least in duplicate. Ki values were calculated using the Cheng–Prusoff equation. Results are presented as mean values with confidence intervals (CI) (95%).

HepG2 and SH-SY5Y cells = assay: MTS assay, statements on both cell lines together; type: cell-based, human; details: HepG2 or SH-SY5Y cells; up to 50 µM
eqBuChE = biological target: T5, eqBuChE (Equus caballus, UniProt P81908); assay: kinetic study of eqBuChE inhibition (Lineweaver-Burk, Cornish-Bowden plots); type: biochemical, equine; details: substrate butyrylthiocholine
T5 construct: BuChE from equine serum (eqBuChE); purchased Sigma-Aldrich (Steinheim, Germany); host or cells: equine serum
T5 sequence (P81908 whole entry): as the sequence (P81908 whole entry) above
Protocol: The Michaelis–Menten equation was used to calculate the maximum velocity (Vmax) and the Michaelis constant (Km).
(§3) The type of line intersection and the location of this intersection confirms the mixed type of inhibition.
(§4) Studies were performed with compounds 16 and 17 using a method as described previously. Vmax and Km values of the Michaelis–Menten kinetics were calculated by nonlinear regression from substrate–velocity curves. Lineweaver–Burk and Cornish–Bowden plots were calculated using linear regression in GraphPad Prism 9 software (GraphPad Software, San Diego, CA, USA). Each experiment was performed in triplicate.

eeAChE = biological target: T6, eeAChE (Electrophorus electricus, UniProt O42275); assay: kinetic study of eeAChE inhibition (Lineweaver-Burk, Cornish-Bowden plots); type: biochemical; details: substrate acetylthiocholine
T6 construct: purchased Sigma-Aldrich (Steinheim, Germany)
T6 sequence (O42275 24-633): as the sequence (O42275 24-633) above
Protocol: […]. The Michaelis–Menten equation was used to calculate the maximum velocity (Vmax) and the Michaelis constant (Km).
as §3, §4

[5] = system: AChE extracted from mouse brains (mbAChE); set-up: method as in PMID 30822710; details: cited from earlier work
hH3R [6] = details: cited from earlier work
mpBuChE = system: mpBuChE; set-up: method as in PMID 30822710; details: cited from earlier work
[7] = biological target: T2, AChE from electrophorus electricus (eeAChE); details: cited from earlier work
[8] = biological target: T3, BuChE from equine serum (eqBuChE); details: cited from earlier work
hH3R [9] = details: cited from earlier work; remark: listed apart in the source

| SMILES | inhibition at 1 µM (hMAO B) [%] | IC50 (SH-SY5Y cells) [µM] | viability at 24 h, 50 µM [1] [%] | IC50 [2] [µM] | viability at 50 µM [3] [%] | viability at 48 h, 50 µM (MTS assay in HepG2 cells) [%] | IC50 (HepG2 cells) [µM] | Ki (human H3 receptor (hH3R)) | IC50 [4] [µM] | IC50 [7] [µM] | IC50 [8] [µM] | Ki (hH3R [9]) [µM] | also measured |
| --- | --- | --- | --- | --- | --- | --- | --- | --- | --- | --- | --- | --- | --- |
| CC(=O)c1ccc(OCCCCCN2CCCC(C)C2)cc1 (stereo not shown) [Compound 6, 1-(4-((5-(3-Methylpiperidin-1-yl)pentyl)oxy)phenyl)ethan-1-one hydrogen oxalate] | 10 | 149 | 86.2 ± 2.2 | 3.06 ± 0.1 | > 50 | 74.3 ± 5.58 | 120 | < 0.05 µM and 0.026 µM |  |  |  |  | inhibition at 10 µM ([4]; at 10 µM, read-out: eqBuChE % inh): 14% |
| CCC(=O)c1ccc(OCCCCCN2CCCC(C)C2)cc1 (stereo not shown) [Compound 8, 1-(4-((5-(3-Methylpiperidin-1-yl)pentyl)oxy)phenyl)propan-1-one hydrogen oxalate] | 19 | 349 | 90.7 ± 1.5 | 2.1 ± 0.06 | > 50 | 70.9 ± 2.92 | 142 | 0.012 µM | 1.75 ± 0.05 |  |  |  |  |
| CCC(=O)c1ccc(OCCCCCN2CCC(C)CC2)cc1 [Compound 12, 1-(4-((5-(4-Methylpiperidin-1-yl)pentyl)oxy)phenyl)propan-1-one hydrogen oxalate] | 0 | 421 | 90.7 ± 12.9 |  | > 50 | 77.2 ± 4.14 | 149 | 0.057 µM | 1.29 ± 0.08 |  |  |  | inhibition at 10 µM ([2]; at 10 µM, read-out: eeAChE % inh): 58% |
| CCC(=O)c1ccc(OCCCCCN2CCCCCC2)cc1.O=C(O)C(=O)O [Compound 16, 1-(4-((5-(Azepan-1-yl)pentyl)oxy)phenyl)propan-1-one hydrogen oxalate] | 6 | 357 | 90.3 ± 5.32 | 3.6 ± 0.12 | > 50 | 67.7 ± 1.14 | 92 | < 0.05 µM and 0.03 µM | 0.55 ± 0.02 |  |  |  | cell toxicity (HepG2 and SH-SY5Y cells): lack of cell toxicity; type of eqBuChE inhibition (eqBuChE): mixed |
| CCC(=O)c1ccc(OCCCCCCN2CCCCCC2)cc1.O=C(O)C(=O)O [Compound 17, 1-(4-((6-(Azepan-1-yl)hexyl)oxy)phenyl)propan-1-one hydrogen oxalate] | 5 | 111 | 70.3 ± 4.46 | 1.06 ± 0.03 | > 50 | 58 ± 3.54 | 60 | < 0.05 µM and 0.042 µM | 2.86 ± 0.03 |  |  |  | type of eeAChE inhibition (eeAChE): non-competitive (mixed); also recorded: mixed; cell toxicity (HepG2 and SH-SY5Y cells): lack of cell toxicity |
| CCN(C)CCCCOc1ccc2c(=O)c(-c3ccc(OCCN4CCCCC4)cc3)coc2c1 [II] |  |  |  |  |  |  |  |  |  |  |  |  | IC50 [5]: 0.08 µM; IC50 (hH3R [6]): 0.27 µM; IC50 (mpBuChE): 2.89 µM |
| CN1CCN(CCCN(C)C(=O)c2cc3ccc(Cl)cc3[nH]2)CC1 [I] |  |  |  |  |  |  |  |  |  | 9.09 | 21.1 |  | EC50 (hH3R [6]): 0.73 µM |
| C=CCN1CCN(CC2Cc3cc(C(C)(C)C)ccc3O2)CC1 (stereo not shown) [VI] |  |  |  |  |  |  |  |  |  | 19.1 | 13.2 | 0.016 |  |
| N#Cc1ccc(-c2ccc(OCCCN3CCCCCC3)cc2)cc1 [V] |  |  |  |  |  |  |  |  |  | 2.63 | 1.3 | 0.009 |  |
| O=C(c1ccccc1)c1ccc(OCCCCCN2CCCCCC2)cc1 [lead 2] |  |  |  |  |  |  |  |  |  | 4.63 | 0.68 | 0.04 |  |
